In article PMC7251927, “Impact of Acute and Chronic Amyloid-β Peptide Exposure on Gut Microbial Commensals in the Mouse” (Frontiers in Microbiology, 2020):

Columns and labels:
[1] = Gut transition time of orally administered TAMRA-labeled Aβ; format: in vivo, mouse; conditions: 10 μg oral; for Gut segment in which TAMRA fluorescence was detected (2 cm sections, 1 = stomach to 12 = rectal): one animal, technical duplicates
Method: (§1) Animals were lightly anesthetized with Isoflurane and 10 μg of peptide or solvent (10 mM NH4OH) administered slowly into the oral cavity. Mice were kept in manual fixation up to ingestion of the fluid to prevent aspiration.
(§2) Animals were deeply anesthetized with isoflurane and sacrificed by decapitation. For microbiome determination, feces pellets close to the rectum were taken. For assessing fluorescence after feeding of TAMRA-labeled Aβ, the whole gut was placed in ice cold isotonic sodium chloride to prevent further peristalsis movement. Segments of 2 cm length were then chopped starting from the stomach, the content collected by longitudinal opening and stored on ice until further use.
After oral application of TAMRA-labeled Aβ or NH4OH as control and sacrifice of the animals 2, 4, or 24 h later, chyme samples were diluted with 500 μl ice cold PBS, incubated for 5 min and centrifuged. Fluorescence was measured by using 50 μl of the supernatant in duplicates (Exc 540 nm and Em 580 nm, FLUOstar Optima, BMG Labtech GmbH, Ortenberg, Germany) at intervals of 1 min over a period of 1 h at 37°C with shaking before every measurement. The mean of the values of the measurements between 15 and 45 min was used to calculate the difference between the TAMRA-labeled Aβ-treated animals and solvent-treated control animals.
FIGURE 2 Stability and time-dependent localization of per os administered Aβ peptides in the murine gastrointestinal tract. (A) TAMRA-labeled Aβ peptide was incubated in two different concentrations [high (H): 0.025 μM; low (L): 0.005 μM] with PBS-diluted gastric content of wild type mice for 2 h at 37°C. Solvent of the peptide was used as a negative control (–). Additionally, samples with PBS instead of chyme were incubated as described (buffer). Proteins were separated on PAA gel and transferred to nitrocellulose. […] (B) To assess the passage of orally administered Aβ peptides, wild type or 5xFAD mice were fed with 10 μg of TAMRA-labeled Aβ peptides and sacrificed at indicated time points. TAMRA-dependent fluorescence was determined in the chyme of 2 cm gut sections numbered from 1 (oral end = stomach) to 12 (rectal section). Values are presented as measured difference between the TAMRA-Aβ-treated animals and solvent-treated control animals (one animal per time point, technical duplicates).

[2] = test system: murine fecal microorganisms; experiment: Bacterial viability assay (BacTiter Glo) on diluted fecal samples; format: cell-based, mouse; conditions: 2 μM peptide, 10 min incubation, luminescence, n = 13 animals
Method: Freshly collected fecal pellets were suspended in isotonic sodium chloride solution (0.9%, 100 μl/mg) using a hand-held electric stirrer (Xenox, Fähren, Germany). Aliquots of 50 μl were supplemented with 5 μl of peptide solution in 0.4 mM NH4OH buffered in PBS. After 10 min incubation at room temperature under careful mixing for every 2 min, 20 μl of this suspension were added to 4 ml of thioglycollate bouillon (Becton Dickinson GmbH, Heidelberg, Germany) and kept for overnight at […]. The following day, 1 μl of the diluted fecal suspension was spread on Schaedler agar plates (Becton Dickinson GmbH, Heidelberg, Germany) and incubated for 48 h anaerobically (Anoxomat, Mart Microbiology B.V, Drachten, Netherlands). Lastly, colony forming units (CFU) were counted and normalized to controls from the same donor mouse incubated with scrambled peptide.
After incubation of diluted feces samples with Aβ peptide or scrambled control for plating (see above), additional 1:100 dilutions were prepared and viability measured by using the BacTiter Glo assay as indicated by the vendor (Promega, Mannheim, Germany). Relative luminescence was measured and normalized to controls from the same donor mouse incubated with scrambled peptide.
Viability was measured and calculated in percent of scrambled peptide treated samples (n = 13 animals per group,♂ = 6–7, ♀ = 6–7). […]

Lactobacillaceae = experiment: Family-specific cultivation, CFU on Petrifilm plates selective for Lactobacillaceae; format: cell-based, mouse; conditions: 2 μM, plates 20 h at 37°C, n = 10–11
Method: (§3) For assessing toxic effects of Aβ on specific microbial families, freshly collected feces was suspended and incubated with 2 μM peptide solution as described above. Afterward, feces suspensions were diluted with 0.9% sodium chloride solution for plating 1 ml on 3M^TM-Petrifilm plates specific for Enterobacteriaceae and Lactobacillaceae (3M Deutschland GmbH, Neuss, Germany). Plates were incubated for 20 h at 37°C. CFU were counted and normalized to samples from the same donor mouse incubated with scrambled peptide.
(§4) Viability was measured and calculated in percent of scrambled peptide treated samples (n = 13 animals per group,♂ = 6–7, ♀ = 6–7). […] Subsequently, aliquots of further diluted bacteria suspension were plated on Schaedler agar and incubated anaerobically for 48 h at 37°C. Number of colony forming units (CFU) of samples treated with scrambled peptide control were set to 100% (n = 7 animals per group; ♂ = 3, ♀ = 4). […] Datapoints for individual normalized measurements are shown in each graph (*p < 0.05; **p < 0.01).

Enterobacteriaceae = experiment: Family-specific cultivation, CFU on Petrifilm plates selective for Enterobacteriaceae; format: cell-based, mouse; conditions: 2 μM, plates 20 h at 37°C
Method: as §3, §4

gut microbiome = experiment: 16S rDNA sequencing of the gut microbiome after oral peptide application; format: in vivo, mouse; conditions: female wild type mice, 10 μg peptide oral once, feces
Method: as §1, §2

Enterococcus faecalis = test system: Enterococcus faecalis; design: method as in Soscia et al., 2010; conditions: single microbial species; ref Soscia et al., 2010; cited from earlier work
Candida albicans = test system: Candida albicans; design: method as in Soscia et al., 2010; conditions: single microbial species; ref Soscia et al., 2010; cited from earlier work

Substance | Gut segment in which TAMRA fluorescence was detected (2 cm sections, 1 = stomach to 12 = rectal) ([1]; 5xFAD transgenic mouse, 2 h after treatment) | Gut segment in which TAMRA fluorescence was detected (2 cm sections, 1 = stomach to 12 = rectal) ([1]; 5xFAD transgenic mouse, 4 h after treatment) | TAMRA fluorescence signal in chyme of gut segments ([1]; wild type and 5xFAD mice, 24 h after treatment, any sample) | Gut segment in which TAMRA fluorescence was detected (2 cm sections, 1 = stomach to 12 = rectal) ([1]; wild type mouse, 4 h after treatment) | Viability of fecal microorganisms vs scrambled peptide treated samples ([2]; fecal samples from transgenic 5xFAD mice) | Viability of fecal microorganisms vs scrambled peptide treated samples ([2]; fecal samples from wild type mice) | Lactobacillaceae CFU vs scrambled peptide control (Lactobacillaceae; fecal material from transgenic 5xFAD mice) | Lactobacillaceae CFU vs scrambled peptide control (Lactobacillaceae; fecal material from wild type mice) | Enterobacteriaceae CFU vs scrambled peptide control (Enterobacteriaceae; fecal material from transgenic 5xFAD mice, n = 10–11, p = 0.09) | Enterobacteriaceae CFU vs scrambled peptide control (Enterobacteriaceae; fecal material from wild type mice, n = 10–11) | Beta diversity, Bray–Curtis dissimilarity (CAP), difference vs scrambled Aβ-fed animals (gut microbiome) | Beta diversity, Jaccard distance based ordination (CAP), vs scrambled Aβ-fed animals (gut microbiome) | Antimicrobial effect on Enterococcus faecalis (Enterococcus faecalis) | Antimicrobial effect on Candida albicans (Candida albicans)
TAMRA-labeled Aβ42: TAMRA-labeled Aβ peptide (AnaSpec) used for detecting gut transition of Aβ | 11 | 11 | No signal could be detected | 11 | – | – | – | – | – | – | – | – | – | –
human Aβ1–42 [Aβ42] | – | – | – | – | no such toxic effect | significantly reduce viability | no significant effects | significantly reduced | non-significant reduction | significantly reduced | not significant | significantly differed | antimicrobial effect | antimicrobial effect
